Source: patent US20140179726A1, “GUT MICROFLORA AS BIOMARKERS FOR THE PROGNOSIS OF CIRRHOSIS AND BRAIN DYSFUNCTION” (priority 2011, published 2014)
Values joined by “and” are separate entries in the source; they are usually repeats but may differ in a detail not shown here. Equal values may be shown once.

Assays:
stool microbiome = test: Stool microbiome by multitag pyrosequencing, family level, within HE group (Example 1); assay type: in vivo, human; design: normalized abundance of Streptococcaceae: unit not given here; details: HE patients
Description: (§1) Interrogation of the Microbiome: Stool was collected and DNA extracted for microbiome analysis within 24 hours of collection from patients and controls using published techniques (29). We first routinely use Length Heterogeneity PCR (LH-PCR) fingerprinting of the 16S rRNA to rapidly survey our samples and standardize the community amplification. We then interrogated the microbial taxa associated with the gut fecal microbiome using Multitag Pyrosequencing (MTPS). This technique allows the rapid sequencing of multiple samples at one time yielding thousands of sequence reads per sample (12).
Microbiome Community Fingerprinting: LH-PCR was done to standardize the community analysis as previously published (21). Briefly, total genomic DNA was extracted from tissue using Bio101 kit from MP Biomedicals Inc., Montreal, Quebec as per the manufacturer's instructions. About 10 ng of extracted DNA was amplified by PCR using a fluorescently labeled forward primer 27F (5’-(6FAM) AGAGTTTGATCCTGGCTCA G-3′, SEQ ID NO: 1) and unlabeled reverse primer 355R′ (5′-GCTGCCTCCCGTAGGAGT-3′, SEQ ID NO: 2). Both primers are universal primers for Bacteria (22). The LH-PCR products were diluted according to their intensity on agarose gel electrophoresis and mixed with ILS-600 size standards (Promega) and HiDi Formamide (Applied Biosystems, Foster City, Calif.). The diluted samples were then separated on a ABI 3130x1 fluorescent capillary sequencer (Applied Biosystems, Foster City, Calif.) and processed using the Genemapper™ software package (Applied Biosystems, Foster City, Calif.). Normalized peak areas were calculated using a custom PERL script and OTUs constituting less than 1% of the total community from each sample were eliminated from the analysis to remove the variable low abundance components within the communities.
(§2) MTPS: We employed the MTPS process to characterize the microbiome from the fecal samples. Specifically, we have generated a set of 96 emulsion PCR fusion primers that contain the 454 emulsion PCR linkers on the 27F and 355R primers and a different 8 base “barcode” between the A adapter and 27F primer. Thus, each fecal sample was amplified with unique bar-coded forward 16S rRNA primers and then up to 96 samples were pooled and subjected to emulsion PCR and pyrosequenced using a GS-FLX pyrosequencer (Roche). Data from each pooled sample were “deconvoluted” by sorting the sequences into bins based on the barcodes using custom PERL scripts. Thus, we were able to normalize each sample by the total number of reads from each barcode. We have noted that ligating tagged primers to PCR amplicons distorts the abundances of the communities and thus it is critical to incorporate the tags during the original amplification step (12). Several groups have employed various barcoding strategies to analyze multiple samples and this strategy is now well accepted (38).
(§3) RDP10 Analysis: We identified the taxa present in each sample using the Bayesian analysis tool in Version 10 of the Ribosomal Database Project (RDP10). The abundances of the bacterial identifications were then normalized using a custom PERL script and taxa present at >1% of the community were tabulated. We chose this cutoff because of our a priori assumption that taxa present in <1% of the community vary between individuals and have minimal contribution to the functionality of that community and 2,000 reads per sample will only reliably identify community components that are greater than 1% in abundance (13).
The cirrhosis group was divided into those with and without HE and were compared. Data from the significant variables between HE and non-HE groups were combined in a MANOVA model. Within HE patients, comparison was made between those on lactulose alone to those with lactulose and rifaximin. Microbiome abundance comparisons between groups were made at a family level using non-parametric tests. […]

stool microflora = test: Prospective study after lactulose withdrawal: stool microbiome on lactulose and 14 days off; assay type: in vivo, human
Description: Prospective study: A selected group of seven cirrhotic patients in the HE group currently only on lactulose (who were also included in the cross-sectional study) were systematically withdrawn from therapy. Their diet was controlled over the study period. Their stool microflora was analyzed while on lactulose and then 14 days off of lactulose therapy. Day 14 was chosen since prior culture-based studies have shown a change in fecal flora after lactulose initiation within that time frame (31).
as §1, §2, §3
The cirrhosis group was divided into those with and without HE and were compared. Data from the significant variables between HE and non-HE groups were combined in a MANOVA model. Within HE patients, comparison was made between those on lactulose alone to those with lactulose and rifaximin. Microbiome abundance comparisons between groups were made at a family level using non-parametric tests. A comparison was performed between patients on and withdrawn off of lactulose therapy using the Wilcoxon matched-pair signed rank tests. All values are presented as mean±standard deviation unless mentioned otherwise.

[1] = stool, baseline on lactulose, seven patients

SMILES: OC[C@H]1O[C@@H](O[C@@H]2[C@@H](CO)OC(O)(CO)[C@H]2O)[C@H](O)[C@@H](O)[C@H]1O (mixture of isomers) [lactulose]
- normalized abundance of Alcaligenaceae (stool microbiome): 12.6±9%
- normalized abundance of Bacteroidaceae (stool microbiome): 39±35%
- normalized abundance of Enterobacteriaceae (stool microbiome): 26±40%
- normalized abundance of Lactobacillaceae (stool microbiome): 2±1%
- normalized abundance of Porphyromonadaceae (stool microbiome): 14±21%
- normalized abundance of Prevotellaceae (stool microbiome): 18±25%
- normalized abundance of Ruminococcaceae (stool microbiome): 17±22%
- normalized abundance of Streptococcaceae (stool microbiome): 4±10
- normalized abundance of Veillonellaceae (stool microbiome): 15±13%
- clinically recurrent HE at day 14 (stool microflora; after systematic withdrawal of lactulose, seven patients): None of the patients had clinically recurrent HE
- abundance of Faecalibacterium spp. post-withdrawal (stool microflora; stool, 14 days off lactulose, p=0.026 vs on lactulose): 1%
- abundance of Veillonella spp. post-withdrawal (stool microflora; stool, 14 days off lactulose, trend, p=0.07): 0%
- abundance of Alcaligenaceae (stool microflora; [1]): 2.6%
- abundance of Alistipes (stool microflora; [1]): 3%
- abundance of Bacteroides (stool microflora; [1]): 35%
- abundance of Clostridium spp. (stool microflora; [1]): < 1%
- abundance of Dialister (stool microflora; [1]): 2%
- abundance of Faecalibacterium (stool microflora; [1]): 7% and 6%
- abundance of Hafnia (stool microflora; [1]): 2%
- abundance of Hallella (stool microflora; [1]): 4%
- abundance of Lachnospira (stool microflora; [1]): 5%
- abundance of Lactobacillus spp. (stool microflora; [1]): < 1%
- abundance of Parabacteroides spp. (stool microflora; [1]): 2%
- abundance of Porphyromonadaceae (stool microflora; [1]): 1.7%
- abundance of Prevotella (stool microflora; [1]): 13%
- abundance of Roseburia (stool microflora; [1]): 3%
- abundance of Ruminococcus spp. (stool microflora; [1]): < 1%
- abundance of Shigella spp. (stool microflora; [1]): < 1%
- abundance of Streptococcus spp. (stool microflora; [1]): < 1%
- abundance of Succinispira spp. (stool microflora; [1]): 2%
- abundance of Sutterella spp. (stool microflora; [1]): 1%
- abundance of Veillonella (stool microflora; [1]): 2%
- other relative abundance change after lactulose withdrawal (stool microflora; stool, day 14, including Porphyromonadaceae and Alcaligenaceae): No other significant relative abundance change
